Results: ChEMBL document CHEMBL1201862, “PubChem BioAssay data set” (2004)
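Dose response: 5 concentrations. Exposure: 48 h. Format: 96-well plates. Endpoint: linear interpolation; highest concentration if not reached. GI50 is the concentration that inhibits growth by half.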 The source made the active and inactive calls. No stated cut-off is given here; in the data, active = GI50 up to about 1.1 µM and inactive = higher.

How the values were obtained:
Experiment in all cases: growth of human tumour cells (NCI), 48 h
[1] = test system: SK-MEL-5
[2] = test system: DLD-1
[3] = test system: HOP-62
[4] = test system: OVCAR-4
[5] = test system: XF498
[6] = test system: LOX IMVI
[7] = test system: NCI-H460
[8] = test system: HOP-18
[9] = test system: KM-20L2
[10] = test system: HCT-15
[11] = test system: SK-MEL-28
[12] = test system: CCRF-CEM
[13] = test system: HL-60
[14] = test system: A549
[15] = test system: SNB-75
[16] = test system: NCI-H23
[17] = test system: SF-539

Structure (SMILES) | GI50 [1] | GI50 [2] | GI50 [3] | GI50 [4] | GI50 [5] | GI50 [6] | GI50 [7] | GI50 [8] | GI50 [9] | GI50 [10] [µM] | GI50 [11] | GI50 [12] | GI50 [13] | GI50 [14] | GI50 [15] | GI50 [16] | GI50 [17]
C[C@@H](NC1CCC[C@@H]1O)c1ccccc1 (some centres undefined) | > 100 µM (inactive) | > 100 µM (inactive) | > 100 µM (inactive) | > 100 µM (inactive) | > 100 µM (inactive) | > 100 µM (inactive) | > 100 µM (inactive) | > 100 µM (inactive) | > 100 µM (inactive) | > 100 | > 100 µM (inactive) | > 100 µM (inactive) | > 100 µM (inactive) | > 100 µM (inactive) | > 100 µM (inactive) |  | 
CC(=O)Oc1ccc(O)c(O)c1C/C=C(\C)CC/C=C(\C)CC/C=C(\C)CCC=C(C)C [TETRAPRENYLPHENOLSUILLIN] |  | 0.34 µM (active) | 1.24 µM (inactive) | 0.426 µM (active) | 0.357 µM (active) | 0.247 µM (active) | 0.365 µM (active) | 0.187 µM (active) | 0.946 µM (active) |  | 0.656 µM (active) |  | 1.39 µM (inactive) | 0.34 µM (active) | 0.439 µM (active) | 0.429 µM (active) | 0.407 µM (active)
COc1cccc2cc(C)c(C(=O)c3ccccc3)nc12 | > 100 µM (inactive) | > 100 µM (inactive) | > 100 µM (inactive) | > 100 µM (inactive) | > 100 µM (inactive) | > 100 µM (inactive) |  | > 100 µM (inactive) | > 100 µM (inactive) | > 100 | > 100 µM (inactive) | > 100 µM (inactive) |  | > 100 µM (inactive) | 91.2 µM (inactive) | > 100 µM (inactive) | > 100 µM (inactive)
Cc1cc(Br)cc(C)c1NC(=O)C(=O)C(C(=O)c1ccncc1)C1OC(=O)c2ccccc21 (centres undefined) |  | > 100 µM (inactive) | > 100 µM (inactive) | > 100 µM (inactive) | > 100 µM (inactive) | > 100 µM (inactive) | > 100 µM (inactive) | > 100 µM (inactive) | > 100 µM (inactive) | > 100 |  | > 100 µM (inactive) | > 100 µM (inactive) | > 100 µM (inactive) |  | > 100 µM (inactive) | 
COC(=O)/C(C#N)=C1\CCC(Nc2cccc(C(F)(F)F)c2)N1C (centres undefined) |  | 57.5 µM (inactive) | > 100 µM (inactive) | > 100 µM (inactive) | 66.2 µM (inactive) | > 100 µM (inactive) | > 100 µM (inactive) | > 100 µM (inactive) | 56 µM (inactive) |  | > 100 µM (inactive) | > 100 µM (inactive) | 61.7 µM (inactive) | > 100 µM (inactive) | 43.3 µM (inactive) | 72.1 µM (inactive) | > 100 µM (inactive)
COC(=O)c1cc(=O)nc2cc3cccccc3n12 | > 100 µM (inactive) | > 100 µM (inactive) | > 100 µM (inactive) |  | > 100 µM (inactive) | > 100 µM (inactive) | 59 µM (inactive) | > 100 µM (inactive) | > 100 µM (inactive) | > 100 | > 100 µM (inactive) | > 100 µM (inactive) | > 100 µM (inactive) | > 100 µM (inactive) | > 100 µM (inactive) | > 100 µM (inactive) | > 100 µM (inactive)
COCN1COCN(C)C1=O | > 100 µM (inactive) | > 100 µM (inactive) | > 100 µM (inactive) | > 100 µM (inactive) | > 100 µM (inactive) | > 100 µM (inactive) | > 100 µM (inactive) | > 100 µM (inactive) | > 100 µM (inactive) | > 100 | > 100 µM (inactive) | > 100 µM (inactive) |  | > 100 µM (inactive) | > 100 µM (inactive) | > 100 µM (inactive) | > 100 µM (inactive)
